Laboratory results from patent US20160244436A1, “NOVEL FUNCTIONALIZED 5-(PHENOXYMETHYL)-1,3-DIOXANE ANALOGS EXHIBITING CYTOCHROME P450 INHIBITION AND THEIR METHOD OF USE” (CORTENDO AB (PUBL), priority 2013, published 2016).

How the values were obtained:
recombinant CYP-11 = target: T1, recombinant CYP-11 (Homo sapiens, UniProt P15538); test: Cyp11 assay: AD293 cells over-expressing recombinant CYP-11, cortisol formation from 11-deoxycortisol by LC/MS; type: cell-based
T1 construct: expressed in transfected cells; host or cells: AD293
T1 sequence (P15538 25-503): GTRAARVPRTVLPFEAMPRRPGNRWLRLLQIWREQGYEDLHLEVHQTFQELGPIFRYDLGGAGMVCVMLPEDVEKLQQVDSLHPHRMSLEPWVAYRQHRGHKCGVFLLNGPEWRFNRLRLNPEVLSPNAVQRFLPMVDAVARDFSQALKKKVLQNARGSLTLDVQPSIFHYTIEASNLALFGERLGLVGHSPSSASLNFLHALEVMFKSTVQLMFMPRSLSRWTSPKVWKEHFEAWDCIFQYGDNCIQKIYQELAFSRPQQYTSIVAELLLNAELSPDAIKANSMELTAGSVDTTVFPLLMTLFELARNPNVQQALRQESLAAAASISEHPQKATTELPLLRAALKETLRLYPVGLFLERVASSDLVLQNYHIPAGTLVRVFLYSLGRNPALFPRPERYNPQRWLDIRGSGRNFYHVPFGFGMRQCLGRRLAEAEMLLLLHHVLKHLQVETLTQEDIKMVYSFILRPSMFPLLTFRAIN
Experimental: Cyp11 assay protocol: AD293 cells that stably over-express recombinant CYP-11 were seeded in 96 well plates coated with poly D-lysine (15,000 cell per well) and incubated at 37° C. for 24 hours in Dulbecco's Modified Eagle Medium (DMEM) with Fetal Bovine Serum (FBS) that is stripped of hormones by charcoal treatment. The media is then removed, the cells are washed once with Phosphate buffer saline solution, and 50 μL Dulbecco's Modified Eagle Medium (DMEM) with Fetal Bovine Serum (FBS) that is stripped of hormones by charcoal treatment is added. Compounds of the disclosure are then added to the wells in eight concentration spanning 10 μM to 4.5 nM, and the plates are incubated for an additional 60 minutes at 37° C. 11-deoxycortisol is then added (2.0 μM) and the plates are incubated for an additional 12 hours at 37° C. After incubation, 50 uL of the supernatant (medium) is transferred into a fresh plate and 150 uL of an acetonitrile solution containing 200 ng/ml of Telmisartan is added. The sample is mixed and then placed in a centrifuge at 2000 rpm for 5 minutes. 100 uL of the supernatant is transferred into a fresh 96 well deep well plate, 100 uL of 1:1 methanol:water was added, the solution was mixed and then analyzed by LC/MS for the presence of cortisol using an Agilent 1200 RRLC/ABSCIEX API4000 LC-MS or Shimadzu Prominance/ABSCIEX API4000 LC-MS to determine IC5os of the compounds of the disclosure.

recombinant CYP-21 = target: T2, recombinant CYP-21 (Homo sapiens, UniProt P08686); test: Cyp21 assay: AD293 cells over-expressing recombinant CYP-21, 11-deoxycortisol formation from 17α-OH Progesterone by LC/MS; type: cell-based
T2 construct: expressed in transfected cells; host or cells: AD293
T2 sequence (P08686 1-495): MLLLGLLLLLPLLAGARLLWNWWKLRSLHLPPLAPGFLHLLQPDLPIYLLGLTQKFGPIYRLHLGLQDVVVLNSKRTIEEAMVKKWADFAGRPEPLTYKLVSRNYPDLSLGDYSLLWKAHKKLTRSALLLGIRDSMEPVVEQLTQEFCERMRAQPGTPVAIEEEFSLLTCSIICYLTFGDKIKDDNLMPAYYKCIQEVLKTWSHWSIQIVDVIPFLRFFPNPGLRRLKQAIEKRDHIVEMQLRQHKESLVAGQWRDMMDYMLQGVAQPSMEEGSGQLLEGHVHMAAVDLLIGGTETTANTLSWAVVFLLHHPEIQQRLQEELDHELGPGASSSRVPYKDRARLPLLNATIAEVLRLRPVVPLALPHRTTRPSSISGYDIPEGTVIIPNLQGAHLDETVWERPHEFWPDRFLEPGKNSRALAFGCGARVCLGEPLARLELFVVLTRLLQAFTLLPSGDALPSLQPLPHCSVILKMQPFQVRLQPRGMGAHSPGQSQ
Experimental: Cyp21 assay protocol: AD293 cells that stably over-express recombinant CYP-21 were seeded in 96 well plates coated with poly D-lysine (10,000 cell per well) and incubated at 37° C. for 24 hours in Dulbecco's Modified Eagle Medium (DMEM) with Fetal Bovine Serum (FBS) that is stripped of hormones by charcoal treatment. The media is then removed, the cells are washed once with Phosphate buffer saline solution, and 50 μL Dulbecco's Modified Eagle Medium (DMEM) with Fetal Bovine Serum (FBS) that is stripped of hormones by charcoal treatment is added. Compounds of the disclosure are then added to the wells in eight concentration spanning 10 μM to 4.5 nM, and the plates are incubated for an additional 60 minutes at 37° C. 17α-OH Progesterone is then added (1.0 μM) and the plates are incubated for an additional 45 minutes at 37° C. After incubation, 50 uL of the supernatant (medium) is transferred into a fresh plate and 150 uL of an acetonitrile solution containing 200 ng/ml of Telmisartan is added. The sample is mixed and then placed in a centrifuge at 2000 rpm for 5 minutes. 100 uL of the supernatant is transferred into a fresh 96 well deep well plate, 100 uL of 1:1 methanol:water was added, the solution was mixed and then analyzed by LC/MS for the presence of 11-deoxycortisol using an Agilent 1200 RRLC/ABSCIEX API4000 LC-MS or Shimadzu Prominance/ABSCIEX API4000 LC-MS to determine IC5os of the compounds of the disclosure.

Cyp19 = target: T3, Cyp19 (Homo sapiens, UniProt P11511); test: Cyp19 off-target counter screen; type: biochemical; details: off-target enzyme
T3 sequence (P11511 1-503): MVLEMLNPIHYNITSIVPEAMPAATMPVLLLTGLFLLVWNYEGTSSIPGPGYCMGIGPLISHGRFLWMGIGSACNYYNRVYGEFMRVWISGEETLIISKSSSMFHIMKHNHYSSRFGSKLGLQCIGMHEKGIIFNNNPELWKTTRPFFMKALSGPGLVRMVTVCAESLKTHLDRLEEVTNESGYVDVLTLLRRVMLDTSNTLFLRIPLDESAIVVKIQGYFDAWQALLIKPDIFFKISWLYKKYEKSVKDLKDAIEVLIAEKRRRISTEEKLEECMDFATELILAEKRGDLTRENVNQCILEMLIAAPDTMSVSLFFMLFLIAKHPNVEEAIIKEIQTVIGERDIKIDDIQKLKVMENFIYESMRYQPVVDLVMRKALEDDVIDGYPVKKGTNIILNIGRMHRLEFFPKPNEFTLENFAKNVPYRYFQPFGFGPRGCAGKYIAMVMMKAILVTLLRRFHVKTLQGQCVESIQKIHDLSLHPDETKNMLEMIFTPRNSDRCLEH

[1] = tested on: Bile Acid (Cyp7A surrogate); test: Bile acid secretion / synthesis inhibition (Cyp7A surrogate); type: cell-based

IC50 (recombinant CYP-11): 12 nM
IC50 (recombinant CYP-21): 208 nM
IC50 (Cyp19): 350 nM
IC50 [1]: 880 nM
Structure (SMILES): CC(=O)N1CCN(c2ccc(CO[C@H]3CO[C@](Cn4ccnc4)(c4ccc(Cl)cc4Cl)OC3)cc2)CC1 [drawing 112]
